# Biological target: T1, human PTHR1 receptor (Homo sapiens, UniProt Q03431)
# T1 construct: purchased Eurofins HTS030M
# T1 sequence (Q03431 27-593): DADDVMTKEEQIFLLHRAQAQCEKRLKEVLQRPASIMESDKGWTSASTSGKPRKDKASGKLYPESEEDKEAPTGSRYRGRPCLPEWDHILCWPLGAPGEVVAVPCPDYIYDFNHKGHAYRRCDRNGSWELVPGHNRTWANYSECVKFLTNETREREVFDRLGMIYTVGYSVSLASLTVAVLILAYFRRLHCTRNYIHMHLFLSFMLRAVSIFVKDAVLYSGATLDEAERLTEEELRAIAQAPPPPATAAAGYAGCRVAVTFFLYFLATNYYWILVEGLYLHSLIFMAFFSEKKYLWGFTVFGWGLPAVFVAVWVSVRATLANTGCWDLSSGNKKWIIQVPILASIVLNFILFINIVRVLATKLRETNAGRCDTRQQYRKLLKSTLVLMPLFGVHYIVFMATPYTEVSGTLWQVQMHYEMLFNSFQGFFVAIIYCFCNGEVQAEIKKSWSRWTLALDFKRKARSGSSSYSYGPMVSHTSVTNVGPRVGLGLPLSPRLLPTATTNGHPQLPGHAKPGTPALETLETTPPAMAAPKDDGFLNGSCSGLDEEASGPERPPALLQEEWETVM
# Experiment: Competitive antagonist binding assay for hPTH-R1 (radioactive competition binding, SPA beads)
# Conditions: human PTHR1 membranes, [125I]-[Nle8,18,Tyr34]-PTH(1-34) 0.2 nM, 90 minutes at room temperature; read-out: hPTHR1 Ki
# How it was run: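 Human PTHR1 membranes on SPA beads incubated 90 min at room temperature with compound (typically 0-10,000 nM final) and 0.2 nM [125I]-[Nle8,18,Tyr34]-PTH(1-34) in HEPES buffer with MgCl2, CaCl2, BSA, Triton X-100 and protease inhibitors, pH 7.4. Scintillation signal read; Ki values derived.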
row,Ki [nM],SMILES
1,< 100,"CN1C(=O)N(c2c(F)cc(NCCNCCO)cc2F)c2cc(Cl)ccc2-c2cc(Cl)cnc21 [1-34, 4,13-dichloro-10-[2,6-difluoro-4-({2-[(2-hydroxyethyl)amino]ethyl}amino)phenyl]-8-methyl-6,8,10-triazatricyclo[9.4.0.0^2,7]pentadeca-1(11),2(7),3,5,12,14-hexaen-9-one]"
2,< 100,"CNCCNc1cc(F)c(N2C(=O)N(CC3CC3)c3ncc(Cl)cc3-c3ccc(Cl)cc32)c(F)c1 [1-46, 4,13-dichloro-8-(cyclopropylmethyl)-10-(2,6-difluoro-4-{[2-(methylamino)ethyl]amino}phenyl)-6,8,10-triazatricyclo[9.4.0.0^2,7]pentadeca-1(11),2(7),3,5,12,14-hexaen-9-one]"
3,< 100,"CCN1C(=O)N(c2c(F)cc(NCCNC[C@H]3CCC(=O)N3)cc2F)c2cc(C#N)ccc2-c2cc(Cl)cnc21 [1-170, 4-chloro-10-(2,6-difluoro-4-{[2-({[(2R)-5-oxopyrrolidin-2-yl]methyl}amino)ethyl]amino}phenyl)-8-ethyl-9-oxo-6,8,10-triazatricyclo[9.4.0.0^2,7]pentadeca-1(11),2(7),3,5,12,14-hexaene-13-carbonitrile]"
4,< 100,"CNCCNc1cc(F)c(N2C(=O)N(C(C)C)c3ncc(F)cc3-c3c(F)cc(C#N)cc32)c(F)c1 [1-107, 10-(2,6-difluoro-4-{[2-(methylamino)ethyl]amino}phenyl)-4,15-difluoro-9-oxo-8-(propan-2-yl)-6,8,10-triazatricyclo[9.4.0.0^2,7]pentadeca-1(11),2(7),3,5,12,14-hexaene-13-carbonitrile]"
5,< 100,"CN1C(=O)N(c2c(F)cc(NCCNCCO)cc2F)c2cc(C#N)cc(F)c2-c2cc(Cl)cnc21 [1-116, 4-chloro-10-[2,6-difluoro-4-({2-[(2-hydroxyethyl)amino]ethyl}amino)phenyl]-15-fluoro-8-methyl-9-oxo-6,8,10-triazatricyclo[9.4.0.0^2,7]pentadeca-1(11),2(7),3,5,12,14-hexaene-13-carbonitrile]"
6,< 100,"CCN1C(=O)N(c2c(F)cc(NCCNCCCO)cc2F)c2cc(C#N)ccc2-c2cc(Cl)cnc21 [1-190, 4-chloro-10-[2,6-difluoro-4-({2-[(3-hydroxypropyl)amino]ethyl}amino)phenyl]-8-ethyl-9-oxo-6,8,10-triazatricyclo[9.4.0.0^2,7]pentadeca-1(11),2(7),3,5,12,14-hexaene-13-carbonitrile]"
7,< 100,"CCN1C(=O)N(c2c(F)cc(NCCNCCO)cc2F)c2cc(Cl)cnc2-c2cc(F)cnc21 [3-25, 5-chloro-8-[2,6-difluoro-4-({2-[(2-hydroxyethyl)amino]ethyl}amino)phenyl]-10-ethyl-14-fluoro-3,8,10,12-tetraazatricyclo[9.4.0.0^2,7]pentadeca-1(11),2(7),3,5,12,14-hexaen-9-one]"
8,< 100,"CCN1C(=O)N(c2c(F)cc(NCCNCCN(C)C)cc2F)c2cc(C#N)ccc2-c2cc(Cl)cnc21 [1-132, 4-chloro-10-{4-[(2-{[2-(dimethylamino)ethyl]amino}ethyl)amino]-2,6-difluorophenyl}-8-ethyl-9-oxo-6,8,10-triazatricyclo[9.4.0.0^2,7]pentadeca-1(11),2(7),3,5,12,14-hexaene-13-carbonitrile]"
9,< 100,"CCCN1C(=O)N(c2c(F)cc(NCCNC)cc2F)c2cc(Cl)ccc2-c2cc(Cl)cnc21 [1-40, 4,13-dichloro-10-(2,6-difluoro-4-{[2-(methylamino)ethyl]amino}phenyl)-8-propyl-6,8,10-triazatricyclo[9.4.0.0^2,7]pentadeca-1(11),2(7),3,5,12,14-hexaen-9-one]"
10,< 100,"CCN1C(=O)N(c2c(F)cc(NCCN[C@@H]3CC[C@H]3O)cc2F)c2cc(C#N)ccc2-c2cc(F)cnc21 [1-218, 10-{2,6-difluoro-4-[(2-{[(1R,2R)-2-hydroxycyclobutyl]amino}ethyl)amino]phenyl}-8-ethyl-4-fluoro-9-oxo-6,8,10-triazatricyclo[9.4.0.0^2,7]pentadeca-1(11),2(7),3,5,12,14-hexaene-13-carbonitrile]"
11,< 100,"CCN1C(=O)N(c2c(F)cc(NCCN3CCNCC3)cc2F)c2cc(C#N)ccc2-c2cc(Cl)cnc21 [1-155, 4-chloro-10-(2,6-difluoro-4-{[2-(piperazin-1-yl)ethyl]amino}phenyl)-8-ethyl-9-oxo-6,8,10-triazatricyclo[9.4.0.0^2,7]pentadeca-1(11),2(7),3,5,12,14-hexaene-13-carbonitrile]"
12,< 100,"CCN1C(=O)N(c2c(F)cc(NCCNC[C@H](C)O)cc2F)c2cc(C#N)ccc2-c2cc(F)cnc21 [1-199, 10-{2,6-difluoro-4-[(2-{[(2S)-2-hydroxypropyl]amino}ethyl)amino]phenyl}-8-ethyl-4-fluoro-9-oxo-6,8,10-triazatricyclo[9.4.0.0^2,7]pentadeca-1(11),2(7),3,5,12,14-hexaene-13-carbonitrile]"
13,< 100,"CCN1C(=O)N(c2c(F)cc(NCCNCCO)cc2F)c2cc(C#N)cnc2-c2cc(F)cnc21 [3-13, 8-[2,6-difluoro-4-({2-[(2-hydroxyethyl)amino]ethyl}amino)phenyl]-10-ethyl-14-fluoro-9-oxo-3,8,10,12-tetraazatricyclo[9.4.0.0^2,7]pentadeca-1(11),2(7),3,5,12,14-hexaene-5-carbonitrile]"
14,< 100,"CCN1C(=O)N(c2c(F)cc(NCCNC)cc2F)c2cc(Cl)ccc2-c2cccnc21 [1-2, 13-chloro-10-(2,6-difluoro-4-{[2-(methylamino)ethyl]amino}phenyl)-8-ethyl-6,8,10-triazatricyclo[9.4.0.0^2,7]pentadeca-1(11),2(7),3,5,12,14-hexaen-9-one]"
15,< 100,"CCN1C(=O)N(c2c(F)cc(NCCNCC3CCCN3)cc2F)c2cc(C#N)ccc2-c2cc(Cl)cnc21 (stereo not shown) [1-238, 4-chloro-10-{2,6-difluoro-4-[(2-{[(pyrrolidin-2-yl)methyl]amino}ethyl)amino]phenyl}-8-ethyl-9-oxo-6,8,10-triazatricyclo[9.4.0.0^2,7]pentadeca-1(15),2(7),3,5,11,13-hexaene-13-carbonitrile]"
16,< 100,"CCN1C(=O)N(c2c(F)cc(NCCNCCC(C)(C)C(=O)O)cc2F)c2cc(C#N)ccc2-c2cc(Cl)cnc21 [1-209, 4-({2-[(4-{4-chloro-13-cyano-8-ethyl-9-oxo-6,8,10-triazatricyclo[9.4.0.0^2,7]pentadeca-1(11),2(7),3,5,12,14-hexaen-10-yl}-3,5-difluorophenyl)amino]ethyl}amino)-2,2-dimethylbutanoic acid]"
17,< 100,"CCN1C(=O)N(c2c(F)cc(NCCNCCCS(=O)(=O)O)cc2F)c2cc(C#N)ccc2-c2cc(F)cnc21 [1-221, 3-({2-[(4-{13-cyano-8-ethyl-4-fluoro-9-oxo-6,8,10-triazatricyclo[9.4.0.0^2,7]pentadeca-1(11),2(7),3,5,12,14-hexaen-10-yl}-3,5-difluorophenyl)amino]ethyl}amino)propane-1-sulfonic acid]"
18,< 100,"CCN1C(=O)N(c2c(F)cc(NCCNCCO)cc2F)c2cc(Cl)c(C)cc2-c2cccnc21 [3-2, 13-chloro-10-[2,6-difluoro-4-({2-[(2-hydroxyethyl)amino]ethyl}amino)phenyl]-8-ethyl-14-methyl-6,8,10-triazatricyclo[9.4.0.0^2,7]pentadeca-1(11),2(7),3,5,12,14-hexaen-9-one]"
19,1000 to 10000,"CCN1C(=O)N(c2c(F)cc(NCCNCCO)cc2F)c2cc(Cl)ccc2-c2nc(C#N)ccc21 [3-15, 13-chloro-10-[2,6-difluoro-4-({2-[(2-hydroxyethyl)amino]ethyl}amino)phenyl]-8-ethyl-9-oxo-3,8,10-triazatricyclo[9.4.0.0^2,7]pentadeca-1(11),2(7),3,5,12,14-hexaene-4-carbonitrile]"
20,< 100,"CCN1C(=O)N(c2c(F)cc(NCCNC)cc2F)c2cc(Cl)cc(C)c2-c2cc(Cl)cnc21 [1-36, 4,13-dichloro-10-(2,6-difluoro-4-{[2-(methylamino)ethyl]amino}phenyl)-8-ethyl-15-methyl-6,8,10-triazatricyclo[9.4.0.0^2,7]pentadeca-1(11),2(7),3,5,12,14-hexaen-9-one]"
21,< 100,"CCN1C(=O)N(c2c(F)cc(N[C@@H](C)CNCCO)cc2F)c2cc(Cl)ccc2-c2cc(Cl)cnc21 [1-71, 4,13-dichloro-10-(2,6-difluoro-4-{[(2S)-1-[(2-hydroxyethyl)amino]propan-2-yl]amino}phenyl)-8-ethyl-6,8,10-triazatricyclo[9.4.0.0^2,7]pentadeca-1(11),2(7),3,5,12,14-hexaen-9-one]"
22,< 100,"CCN1C(=O)N(c2ccc(NCCNC)cc2)c2cc(Cl)ccc2-c2cc(C)cnc21 [2-5, 13-chloro-8-ethyl-4-methyl-10-(4-{[2-(methylamino)ethyl]amino}phenyl)-6,8,10-triazatricyclo[9.4.0.0^2,7]pentadeca-1(11),2(7),3,5,12,14-hexaen-9-one]"

# Source: patent US20230159532A1, “PARATHYROID HORMONE (PTH) RECEPTOR ANTAGONISTS AND USES THEREOF” (Crinetics Pharmaceuticals, Inc., priority 2021, published 2023)
